Series [1] relates to Influenza A virus. The series is described as follows: Antiviral activity against Influenza A virus A/Victoria/3/75(H3N2) infected in MDCK cells expressing wild type M2 after overnight incubation by fluorescence-based miniplaque assay. The format is functional, organism-based.
The subject of series [2] is MDCK. The series is described as follows: Cytotoxicity against MDCK cells at 50 uM after 18 hrs. Format: cell-based, Canis lupus familiaris. To be noted: dog.
Series [3] deals with Influenza A virus. The series is described as follows: Antiviral activity against Influenza A virus A2/Taiwan/1/64(H2N2) infected in MDCK cells expressing wild type M2 after overnight incubation by fluorescence-based miniplaque assay. Format: functional, organism-based.
The test system of a further series is Influenza B virus. The series is described as follows: Antiviral activity against Influenza B virus B/Russia/69 infected in MDCK cells at 50 uM. The format is functional, organism-based.
A further series deals with Bovine parvovirus. Nature of the series: Antiviral activity against Bovine parvovirus infected in bovine embryonic cells at 50 uM. The format is functional, cell-based.
A further series has as its system HEK293. The format is cell-based. To be noted: Influenza A virus (A/California/07/2009(H1N1)), 10 uM.
In series [4] the test system is MDCK. Nature of the series: Cytotoxicity against MDCK cells at 5 uM after 18 hrs. The format is cell-based, Canis lupus familiaris. The note with it: dog.

The source made the active and inactive calls. The calls are words filed in the database; no cut-off is given here.

As to `NC1(Cc2ccccc2)C2CC3CC(C2)CC1C3` (centres undefined), the concentration for a half-maximal effect (EC50) (as a rule, the midpoint of the concentration-response curve) was determined as 18 µM with Influenza A virus [1] and 0.2 µM in the series with Influenza A virus [3]. Further, the Activity result with MDCK [2] is reported as “Non-toxic”.

Regarding `NC1(c2ccccc2)C2CC3CC(C2)CC1C3` (centres undefined), the EC50 with Influenza A virus [1] stood at 8 µM; with Influenza A virus [3] it was 0.2 µM. The Activity entry with MDCK [2] is “Non-toxic”.

`CCC1(N)C2CC3CC(C2)CC1C3` (centres undefined): the figures for the EC50 in the series on Influenza A virus [1] and in the series on Influenza A virus [3] were 2 µM and 0.8 µM, respectively. Further, in the series on Influenza B virus, the result was inactive. Besides, the Activity result with MDCK [2] is “Non-toxic”.

On to `CCCC1(N)C2CC3CC(C2)CC1C3` (centres undefined), for which the EC50 with Influenza A virus [1] is 23 µM; in the series on Influenza A virus [3], less than 0.24 µM. For the same compound, the outcome in the series on Bovine parvovirus and with Influenza B virus was inactive. Moreover, the values for the Activity entry with MDCK [2] and in the series on HEK293 were “Non-toxic” and 63%, respectively.

For the compound `CCCCCCC1(N)C2CC3CC(C2)CC1C3` (centres undefined), the concentration giving a half-maximal response (EC50) with Influenza A virus [1] amounted to 1.1 µM; with Influenza A virus [3] it was 1.5 µM. In the series on MDCK [4], the Activity result is on record as “Non-toxic”.

In the case of `NC1C2CC3CC(C2)CC1C3` (centres undefined), the EC50 in the series with Influenza A virus [1] was determined as 3.3 µM; in the series with Influenza A virus [3], 0.8 µM. Also, the result in the series with Influenza B virus was inactive. The Activity entry in the series with MDCK [2] is “Non-toxic”.

With `CCCCC1(N)C2CC3CC(C2)CC1C3` (centres undefined), the values for the concentration giving a half-maximal response (EC50) with Influenza A virus [1] and in the series with Influenza A virus [3] were 4 µM and 1.5 µM, respectively. Further, the Activity entry in the series on MDCK [2] is “Non-toxic”.

In the case of `CC(N)C12CC3CC(CC(C3)C1)C2` (centres undefined) [RIMANTADINE], the 50% effective concentration (EC50) in the series with Influenza A virus [1] is 0.53 µM; in the series with Influenza A virus [3], 1.6 µM. Further, the Activity result in the series on MDCK [2] is “Non-toxic”.

As for `CC(C)CC1(N)C2CC3CC(C2)CC1C3` (centres undefined), the figures for the half-maximal effective concentration (EC50) in the series on Influenza A virus [1] and in the series with Influenza A virus [3] were 13 µM and 0.4 µM, respectively. In the series on MDCK [2], the Activity entry was “Non-toxic”.

With `CC1(N)C2CC3CC(C2)CC1C3` (centres undefined), the EC50 with Influenza A virus [1] was determined as 2 µM; in the series on Influenza A virus [3] it was 0.5 µM. The outcome in the series with Influenza B virus was inactive. Also, the Activity result in the series on MDCK [2] is “Non-toxic”.

For the compound `NC12CC3CC(CC(C3)C1)C2` [AMANTADINE], the EC50 with Influenza A virus [1] came out at 2.77 µM; with Influenza A virus [3], 0.34 µM. The Activity entry with MDCK [2] is “Non-toxic”.

These data come from ChEMBL document CHEMBL3286127, “Aminoadamantanes with persistent in vitro efficacy against H1N1 (2009) influenza A” (J Med Chem, 2014).
